# According to ChEMBL document CHEMBL1156374, “Pestalone, a new antibiotic produced by a marine fungus in response to bacterial challenge” (2001):
# Assays:
# Type in all cases: functional
# [1] = test system: Enterococcus faecium; test: Antibacterial activity against vancomycin-resistant Enterococcus faecium
# [2] = test system: Staphylococcus aureus; test: Antibacterial activity against methicillin-resistant Staphylococcus aureus
# [3] = Cytotoxicity against human NCI60 cells
smiles,measurement,setting,value
COc1c(Cl)c(C)c(Cl)c(O)c1C(=O)c1c(C=O)c(O)cc(O)c1CC=C(C)C [PESTALONE],MIC,[1],0.078 µg/mL
same,MIC,[2],0.037 µg/mL
same,GI50,[3],6 µM
